The values below come from the NIST ThermoML archive (doi:10.1016/j.jct.2012.04.016).

± gives the expanded uncertainty stated by the source.

The conditions of this data set: Liquid; Ebulliometric method (Recirculating still).
`CCCCc1ccccc1` [butylbenzene]: the Normal boiling temperature stood at 183.2 ± 0.22 °C.
For the compound `CCc1ccccc1` [ethylbenzene], the Normal boiling temperature came out at 136.20 ± 0.21 °C.
The result for `CC(C)c1ccccc1` [isopropylbenzene] reads 152.40 ± 0.22 °C; that for `O=CN1CCOCC1` [N-formylmorpholine], 240.0 ± 0.21 °C.
Turning to `Cc1ccc(C)c(C)c1` [1,2,4-trimethylbenzene], the Normal boiling temperature came to 169.30 ± 0.22 °C.
